Here are results for 15 compounds from patent US8357717B2, “Spiro group-containing amide compounds having bradykinin 1 receptor (B1R) activity” (Gruenenthal GmbH, priority 2009, dated 2013).

The target of test [1] is T1, human B1R receptor (hB1R) (Homo sapiens, UniProt P46663).
T1 construct: expressed in transfected cells; host or cells: CHO K1 cells, stably transfected
T1 sequence (P46663 1-353): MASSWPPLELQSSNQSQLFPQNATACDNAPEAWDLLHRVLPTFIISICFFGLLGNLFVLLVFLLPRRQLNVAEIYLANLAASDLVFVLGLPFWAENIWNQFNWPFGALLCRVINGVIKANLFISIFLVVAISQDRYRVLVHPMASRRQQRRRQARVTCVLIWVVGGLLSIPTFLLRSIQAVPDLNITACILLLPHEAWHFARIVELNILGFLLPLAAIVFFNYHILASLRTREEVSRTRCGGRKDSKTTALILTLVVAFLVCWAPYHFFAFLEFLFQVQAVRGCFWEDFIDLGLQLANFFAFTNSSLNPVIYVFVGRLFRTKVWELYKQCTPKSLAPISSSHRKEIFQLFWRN
Briefly: FLIPR Ca2+ functional study on bradykinin receptor 1, hB1R cells (CHO K1). Type of test: cell-based. To be noted: CHO-K1, 10 μM test substance; CHO K1 cells with human B1R; agonist Lys-Des-Arg9-bradykinin at EC80; read-out: B1R antagonism, human [10 μM] % inhibition. On the procedure:
(§1) The agonistic or antagonistic activity of substances can be quantified on the bradykinin receptor 1 (B1R) of the species human and rat using ectopically expressing cell lines (CHO K1 cells) and with the aid of a Ca^2+-sensitive dye (Fluo-4) using a fluorescent imaging plate reader (FLIPR). The indication in % activation is based on the Ca^2+ signal after addition of Lys-Des-Arg^9-bradykinin (0.5 nM) or Des-Arg^9-bradykinin (100 nM). Antagonists lead to suppression of the Ca^2+ influx after the addition of the agonist. % Inhibition compared with the maximum achievable inhibition is indicated.
(§2) The agonistic or antagonistic activity of substances can be determined on the bradykinin receptor 1 (B1R) of the species human and rat using the following assay. According to this assay, the Ca^2+ influx through the channel is quantified with the aid of a Ca^2+-sensitive dye (Fluo-4 type, Molecular Probes Europe BV, Leiden, Netherlands) using a Fluorescent Imaging Plate Reader (FLIPR, Molecular Devices, Sunnyvale, USA).
(§3) Chinese hamster ovary cells (CHO K1 cells) which have been stably transfected with the human B1R gene (hB1R cells) or with the B1R gene of the rat (rB1R cells) are used. For functional studies, the cells are plated out on black 96-well plates having a clear base (BD Biosciences, Heidelberg, Germany or Greiner, Frickenhausen, Germany) in a density of 20,000-35,000 cells/well. The cells are left overnight at 37° C. and with 5% CO2 in culture medium (hB1R cells: Nutrient Mixture Ham's F12, Gibco Invitrogen GmbH, Karlsruhe, Germany or DMEM, Sigma-Aldrich, Taufkirchen, Germany; rB1R cells: D-MEM/F12, Gibco Invitrogen GmbH, Karlsruhe, Germany), with 10 vol. % FBS (fetal bovine serum, Gibco Invitrogen GmbH, Karlsruhe, Germany or PAN Biotech GmbH, Aidenbach, Germany). On the following day, the cells are loaded for 60 minutes at 37° C. with 2.13 μM Fluo-4 (Molecular Probes Europe BV, Leiden, Netherlands) in HBSS buffer (Hank's buffered saline solution, Gibco Invitrogen GmbH, Karlsruhe, Germany) […] (Sigma-Aldrich, Taufkirchen, Germany) and 10 mM HEPES (Sigma-Aldrich, Taufkirchen, Germany). The plates are then washed twice with HBSS buffer, and HBSS buffer additionally containing 0.1% BSA (bovine serum albumin; Sigma-Aldrich, Taufkirchen, Germany), 5.6 mM glucose and 0.05% gelatin (Merck KGaA, Darmstadt, Germany) is added to the plates. After incubation for a further 20 minutes at room temperature, the plates are inserted into the FLIPR for Ca^2+ measurement. Alternatively, washing is carried out with buffer A (15 mM HEPES, 80 mM NaCl, 5 mM KCl, 1.2 mM CaCl2, 0.7 mM MgSO4, 2 g/l glucose, 2.5 mM probenecid) followed by loading with buffer A with added 2.5 μM Fluo-4 and 0.025% Pluronic F127 (Sigma-Aldrich, Taufkirchen, Germany). The cells are then washed twice with buffer A and incubated for 30 minutes at room temperature with buffer A additionally containing 0.05% BSA and 0.05% gelatin and are then inserted into the FLIPR for Ca^2+ measurement. The Ca^2+-dependent fluorescence is measured before and after the addition of substances (λex=488 nm, λem=540 nm). Quantification is carried out by measuring the highest fluorescence intensity (FC, fluorescence counts) over time.
(§4) The FLIPR protocol consists of two substance additions. Test substances (10 μM) are first pipetted onto the cells and the Ca^2+ influx is compared with the control (hB1R: Lys-Des-Arg^9-bradykinin >=50 nM; rB1R: Des-Arg^9-bradykinin 10 μM). This gives the activation in %, based on the Ca^2+ signal after addition of Lys-Des-Arg^9-bradykinin (>=50 nM) or Des-Arg^9-bradykinin (10 μM). After 10-20 minutes' incubation, Lys-Des-Arg^9-bradykinin (hB1R) or Des-Arg^9-bradykinin (rB1R) is applied in the concentration of the EC80, and the influx of Ca^2+ is likewise determined. Antagonists lead to suppression of the Ca^2+ influx. The % inhibition compared with the maximum achievable inhibition is calculated. […]

Test [2] deals with T2, B1R receptor of the rat (rB1R) (Rattus norvegicus, UniProt P97583).
T2 construct: expressed in transfected cells; host or cells: CHO K1 cells, stably transfected
T2 sequence (P97583 1-337): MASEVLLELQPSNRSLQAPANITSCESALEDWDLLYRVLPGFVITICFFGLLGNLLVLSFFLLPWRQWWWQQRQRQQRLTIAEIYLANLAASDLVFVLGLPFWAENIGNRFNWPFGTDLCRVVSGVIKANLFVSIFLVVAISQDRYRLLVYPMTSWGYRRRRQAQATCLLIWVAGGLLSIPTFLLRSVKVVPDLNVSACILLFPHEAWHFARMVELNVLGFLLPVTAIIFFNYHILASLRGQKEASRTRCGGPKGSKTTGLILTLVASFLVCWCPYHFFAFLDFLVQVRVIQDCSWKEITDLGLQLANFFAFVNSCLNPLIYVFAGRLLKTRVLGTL
Briefly: FLIPR Ca2+ functional study on bradykinin receptor 1, rB1R cells (CHO K1). The test is classed as cell-based. To be noted: 10 μM test substance; CHO K1 cells with rat B1R; agonist Des-Arg9-bradykinin at EC80; read-out: B1R antagonism, rat [10 μM] % inhibition. How it is done:
as §1, §2, §3, §4

As to `COc1cc(C)c(S(=O)(=O)N2CCc3cccc(C(=O)N4CCC5(CC4)CCN(c4ccncc4)CC5)c3C2)c(C)c1` [Compound G-36, (2-(4-Methoxy-2,6-dimethylphenylsulfonyl)-1,2,3,4-tetrahydroisoquinolin-8-yl)(9-(pyridin-4-yl)-3,9-diazaspiro[5.5]undecan-3-yl)methanone], the inhibition at 10 µM in test [1] and in test [2] was 99% throughout. On to `COc1cc(C)c(S(=O)(=O)N2CCn3cnc(C(=O)N4CCC5(CC4)CCN(c4ccncc4)CC5)c3C2)c(C)c1` [Compound G-72, [7-[(4-Methoxy-2,6-dimethyl-phenyl)sulfonyl]-5,6,7,8-tetrahydro-imidazo[1,5-a]pyrazin-1-yl]-(9-pyridin-4-yl-3,9-diazaspiro[5.5]undecan-3-yl)-methanone], for which the inhibition at 10 µM in test [1] was determined as 100%; in test [2] it was 104%.

Turning to `Cc1cccc(Cl)c1S(=O)(=O)N1CCCc2ccc(CC(=O)N3CCC4(CCN(c5ccncc5)CC4)C3)cc21` [Compound G-51, 2-(1-(2-Chloro-6-methylphenylsulfonyl)-1,2,3,4-tetrahydroquinolin-7-yl)-1-(8-(pyridin-4-yl)-2,8-diazaspiro[4.5]decan-2-yl)ethanone], the inhibition at 10 µM was 100% in test [1] and 106% in test [2]. Taken in the same sequence, the figures for `O=C(c1ccc(Cl)s1)N1CCc2cccc(C(=O)N3CCC4(CC3)CCN(c3ccncc3)CC4)c2C1` [Compound G-44, (5-Chlorothiophen-2-yl)(8-(9-(pyridin-4-yl)-3,9-diazaspiro[5.5]undecane-3-carbonyl)-3,4-dihydroisoquinolin-2(1H)-yl)methanone] were 99% and 62%. Taken in the same sequence, the figures for `O=C(c1cccc2c1CN(S(=O)(=O)c1cccc(Cl)c1Cl)CC2)N1CCC2(CC1)CCN(c1ccncc1)CC2` [Compound G-38, (2-(2,3-Dichlorophenylsulfonyl)-1,2,3,4-tetrahydroisoquinolin-8-yl)(9-(pyridin-4-yl)-3,9-diazaspiro[5.5]undecan-3-yl)methanone] were 97% and 91%. Taken in the same sequence, the figures for `COc1cc(C)c(S(=O)(=O)N2CCCc3ccc(CC(=O)N4CCC5(CCN(c6ccncc6)CC5)C4)cc32)c(C)c1` [Compound G-11, 2-(1-(4-Methoxy-2,6-dimethylphenylsulfonyl)-1,2,3,4-tetrahydroquinolin-7-yl)-1-(8-(pyridin-4-yl)-2,8-diazaspiro[4.5]decan-2-yl)ethanone] were 99% and 99%. Take `Cc1ccc(C(=O)N2CCc3ccc(C(=O)N4CCC5(CC4)CCN(c4ccncc4)CC5)cc3C2)s1` [Compound G-58, (5-Methylthiophen-2-yl)(7-(9-(pyridin-4-yl)-3,9-diazaspiro[5.5]undecane-3-carbonyl)-3,4-dihydroisoquinolin-2(1H)-yl)methanone]: the inhibition at 10 µM in test [1] was found to be 100%; in test [2] it was 91%. Consider `O=C(c1ccc2c(c1)CN(C(=O)c1ccc(Cl)s1)C2)N1CCC2(CC1)CCN(c1ccncc1)CC2` [Compound G-69, [2-(5-Chloro-thiophene-2-carbonyl)-2,3-dihydro-1H-isoindol-5-yl]-(9-pyridin-4-yl-3,9-diazaspiro[5.5]undecan-3-yl)-methanone], for which the figures for the inhibition at 10 µM in test [1] and in test [2] were 99% and 70%, respectively. Taken in the same sequence, the figures for `O=C(c1ccc2c(c1)CN(C(=O)c1cc3ccccc3s1)CC2)N1CCC2(CC1)CCN(c1ccncc1)CC2` [Compound G-59, Benzo[b]thiophen-2-yl(7-(9-(pyridin-4-yl)-3,9-diazaspiro[5.5]undecane-3-carbonyl)-3,4-dihydroisoquinolin-2(1H)-yl)methanone] were 86% and 95%. Taken in the same sequence, the figures for `Cc1ccc(Cl)c(S(=O)(=O)N2CCCc3ccc(CC(=O)N4CCC5(CC4)CCN(c4ccncc4)CC5)cc32)c1Cl` [Compound G-66, 2-[1-[(2,6-Dichloro-3-methyl-phenyl)sulfonyl]-1,2,3,4-tetrahydro-quinolin-7-yl]-1-(9-pyridin-4-yl-3,9-diazaspiro[5.5]undecan-3-yl)-ethanone] were 98% and 100%. In the same order, the values of `COc1cc(C)c(C(=O)N2Cc3ccc(C(=O)N4CCC5(CC4)CCN(c4ccncc4)CC5)cc3C2)c(C)c1` [Compound G-73, [2-(4-Methoxy-2,6-dimethyl-benzoyl)-2,3-dihydro-1H-isoindol-5-yl]-(9-pyridin-4-yl-3,9-diazaspiro[5.5]undecan-3-yl)-methanone] are 85% and 13%. Consider `O=C(c1ccc2c(c1)CN(C(=O)c1ccccc1Cl)CC2)N1CCC2(CC1)CCN(c1ccncc1)CC2` [G_CC-045, (2-(2-Chlorobenzoyl)-1,2,3,4-tetrahydroisoquinolin-7-yl)(9-(pyridin-4-yl)-3,9-diazaspiro[5.5]undecan-3-yl)methanone], for which the inhibition at 10 µM in test [2] was 92%. Regarding `O=C(c1ccc2c(c1)N(C(=O)c1ccccc1Cl)CC2)N1CCC2(CC1)CCN(c1ccncc1)CC2` [G_CC-009, (1-(2-Chlorobenzoyl)indolin-6-yl)(9-(pyridin-4-yl)-3,9-diazaspiro[5.5]undecan-3-yl)methanone], the inhibition at 10 µM in test [2] worked out at 78%. The same measure, in the same setting: for `COc1cc(C)c(S(=O)(=O)N2CCc3ccc(C(=O)N4CCC5(CC4)CCN(Cc4ccccc4)C5=O)cc3C2)c(C)c1` [G_CC-040, 2-Benzyl-8-(2-(4-methoxy-2,6-dimethylphenylsulfonyl)-1,2,3,4-tetrahydroisoquinoline-7-carbonyl)-2,8-diazaspiro[4.5]decan-1-one] the value was 70%; for `COc1cc(C)c(S(=O)(=O)N2CCc3ccc(C(=O)N4CCC5(CCN(Cc6ccccc6)C5)C4)cc32)c(C)c1` (centres unmarked) [G_CC-007, (7-Benzyl-2,7-diazaspiro[4.4]nonan-2-yl)(1-(4-methoxy-2,6-dimethylphenylsulfonyl)indoline-6-yl)methanone], 59%.
